According to US20240174624A1, “CHIRAL N-(1,3,4-OXADIAZOLE-2-YL)PHENYL CARBOXYLIC ACID AMIDES AND THEIR USE AS HERBICIDES” (Bayer Aktiengesellschaft, priority 2021, published 2024):

How the values were obtained:
ECHCG [1] = assay: Pre-emergence herbicidal action; type: in vivo, Echinochloa crus-galli; conditions: scored after 3 weeks
Outline: (§1)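 Weed and crop seeds were sown in sandy loam, and WP or EC formulations were sprayed onto the covering soil at 600 to 800 l/ha water with 0.2% wetting agent. After 3 weeks in a greenhouse, damage was scored visually against untreated controls as percent activity (100% = plants dead).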

AMARE [2] = assay: Post-emergence herbicidal action; type: in vivo, Amaranthus retroflexus; conditions: assessed after about 3 weeks
Outline: (§2)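 Greenhouse plants in sandy loam treated at the one-leaf stage, 2–3 weeks after sowing, by spraying WP or EC formulations as aqueous suspension/emulsion at 600–800 l/ha with 0.2% wetting agent. Visual assessment after about 3 weeks versus untreated controls, as percent action (100% = plants dead, 0% = like control).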

TRZAS [3] = assay: Pre-emergence damage to crop plants; type: in vivo, Triticum aestiva; conditions: 80 g a.i./ha, comparative experiment
Text: (§3) Seeds of monocotyledonous and dicotyledonous weed plants and crop plants are laid out in sandy loam soil in wood-fibre pots and covered with soil. The compounds of the invention, formulated in the form of wettable powders (WP) or as emulsion concentrates (EC), are then applied to the surface of the covering soil in the form of an aqueous suspension or emulsion at a water application rate equivalent to 600 to 800 l/ha, with addition of 0.2% wetting agent. After the treatment, the pots are placed in a greenhouse and kept under good growth conditions for the trial plants. The damage to the test plants is scored visually after a test period of 3 weeks by comparison with untreated controls (herbicidal activity in percent (%): 100% activity=the plants have died, 0% activity=like control plants). […] The tables below illustrate, in an illustrative manner, the post-emergence herbicidal action of the compounds of the invention, the herbicidal activity being stated in percent. In the experiments that follow, the herbicidal action of the compounds of the invention and that of the corresponding known racemic compounds closest from WO2012126932 and WO2018202535 were compared under the above-specified conditions by the pre-emergence and post-emergence method. The example numbers given in the tables relate to the compounds disclosed in the respective documents.

VIOTR [4] = assay: Post-emergence herbicidal action; type: in vivo, Viola tricolor; conditions: for Post-emergence action against VIOTR: assessed after about 3 weeks; for Herbicidal action against VIOTR: comparative experiment
Experimental: (§4) Seeds of monocotyledonous and dicotyledonous weed and crop plants are laid out in sandy loam soil in wood-fibre pots, covered with soil and cultivated in a greenhouse under good growth conditions. 2 to 3 weeks after sowing, the test plants are treated at the one-leaf stage. The compounds of the invention, formulated in the form of wettable powders (WP) or as emulsion concentrates (EC), are then sprayed onto the green parts of the plants in the form of an aqueous suspension or emulsion at a water application rate equating to 600 to 800 l/ha, with addition of 0.2% wetting agent. After the test plants have been left to stand in the greenhouse under optimal growth conditions for about 3 weeks, the action of the preparations is assessed visually in comparison to untreated controls (herbicidal action in percent (%): 100% activity=the plants have died, 0% activity=like control plants). […] The tables below illustrate, in an illustrative manner, the post-emergence herbicidal action of the compounds of the invention, the herbicidal activity being stated in percent. In the experiments that follow, the herbicidal action of the compounds of the invention and that of the corresponding known racemic compounds closest from WO2012126932 and WO2018202535 were compared under the above-specified conditions by the pre-emergence and post-emergence method. The example numbers given in the tables relate to the compounds disclosed in the respective documents.

ZEAMX [5] = assay: Pre-emergence damage to crop plants; type: in vivo, Zea mays; conditions: comparative experiment
Outline: (§5)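 Application was to the soil surface over freshly covered seeds, using wettable-powder or emulsion-concentrate formulations diluted in water at 600 to 800 l/ha with 0.2% wetting agent. Percent activity was judged by eye after 3 weeks versus untreated controls.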

ECHCG [6] = assay: Post-emergence herbicidal action; type: in vivo, Echinochloa crus-galli; conditions: for Post-emergence action against ECHCG: assessed after about 3 weeks
Outline: (§6)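 Greenhouse pot test on sandy loam; plants treated at one-leaf stage, 2–3 weeks after sowing, by spraying WP or EC formulations as aqueous suspension/emulsion at 600–800 l/ha water with 0.2% wetting agent. Visual damage scored about 3 weeks later versus untreated controls (100% = dead, 0% = like control).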

MATIN [7] = assay: Pre-emergence herbicidal action; type: in vivo, Matricaria inodora; conditions: scored after 3 weeks
Outline: as §5

AMARE [8] = assay: Pre-emergence herbicidal action; type: in vivo, Amaranthus retroflexus; conditions: scored after 3 weeks
Outline: as §1

AVEFA [9] = assay: Pre-emergence herbicidal action; type: in vivo, Avena fatua; conditions: 80 g/ha, scored after 3 weeks
Outline: as §5

ZEAMX [10] = assay: Post-emergence damage to crop plants; type: in vivo, Zea mays; conditions: 80 g a.i./ha, comparative experiment
Experimental: as §4

PHBPU [11] = assay: Pre-emergence herbicidal action; type: in vivo, Pharbitis purpurea; conditions: 80 g/ha, scored after 3 weeks
Text: as §3, with “percent.” for “percent. In the experiments that follow, the herbicidal action of the compounds of the invention and that of the corresponding known racemic compounds closest from WO2012126932 and WO2018202535 were compared under the above-specified conditions by the pre-emergence and post-emergence method. The example numbers given in the tables relate to the compounds disclosed in the respective documents.”

AVEFA [12] = assay: Post-emergence herbicidal action; type: in vivo, Avena fatua; conditions: 20 g/ha, assessed after about 3 weeks
Experimental: as §4, with “percent.” for “percent. In the experiments that follow, the herbicidal action of the compounds of the invention and that of the corresponding known racemic compounds closest from WO2012126932 and WO2018202535 were compared under the above-specified conditions by the pre-emergence and post-emergence method. The example numbers given in the tables relate to the compounds disclosed in the respective documents.”

VERPE [13] = assay: Post-emergence herbicidal action; type: in vivo, Veronica persica; conditions: assessed after about 3 weeks
Outline: as §6

PHBPU [14] = assay: Post-emergence herbicidal action; type: in vivo, Pharbitis purpurea; conditions: assessed after about 3 weeks
Experimental: as §4, with “percent.” for “percent. In the experiments that follow, the herbicidal action of the compounds of the invention and that of the corresponding known racemic compounds closest from WO2012126932 and WO2018202535 were compared under the above-specified conditions by the pre-emergence and post-emergence method. The example numbers given in the tables relate to the compounds disclosed in the respective documents.”

ORYZA [15] = assay: Post-emergence damage to crop plants; type: in vivo, Oryza sativa; conditions: 80 g a.i./ha, comparative experiment
Experimental: as §4

MATIN [16] = assay: Post-emergence herbicidal action; type: in vivo, Matricaria inodora; conditions: assessed after about 3 weeks
Outline: as §2

ALOMY = assay: Pre-emergence herbicidal action; type: in vivo, Alopecurus myosuroides; conditions: 80 g/ha, scored after 3 weeks
Outline: as §5

TRZAS [17] = assay: Post-emergence damage to crop plants; type: in vivo, Triticum aestiva; conditions: comparative experiment
Outline: as §6

POLCO [18] = assay: Pre-emergence herbicidal action; type: in vivo, Polygonum convolvulus; conditions: 80 g/ha, scored after 3 weeks
Outline: as §5

SETVI [19] = assay: Pre-emergence herbicidal action; type: in vivo, Setaria viridis; conditions: scored after 3 weeks
Outline: as §5

VIOTR [20] = assay: Pre-emergence herbicidal action; type: in vivo, Viola tricolor; conditions: scored after 3 weeks
Outline: as §1

SETVI [21] = assay: Post-emergence herbicidal action; type: in vivo, Setaria viridis; conditions: for Post-emergence action against SETVI: assessed after about 3 weeks
Outline: as §6

ORYZA [22] = assay: Pre-emergence damage to crop plants; type: in vivo, Oryza sativa; conditions: 80 g a.i./ha, comparative experiment
Text: as §3

POLCO [23] = assay: Post-emergence herbicidal action; type: in vivo, Polygonum convolvulus; conditions: 20 g/ha, assessed after about 3 weeks
Experimental: as §4, with “percent.” for “percent. In the experiments that follow, the herbicidal action of the compounds of the invention and that of the corresponding known racemic compounds closest from WO2012126932 and WO2018202535 were compared under the above-specified conditions by the pre-emergence and post-emergence method. The example numbers given in the tables relate to the compounds disclosed in the respective documents.”

BRSNW = assay: Pre-emergence damage to crop plants; type: in vivo, Brassica napus; conditions: 20 g a.i./ha, comparative experiment
Text: as §3

GLXMA = assay: Post-emergence damage to crop plants; type: in vivo, Glycine max; conditions: 5 g a.i./ha, comparative experiment
Experimental: as §4, with “The example numbers given in the tables relate to the compounds disclosed in the respective documents.” left out

DIGSA [24] = assay: Pre-emergence herbicidal action; type: in vivo, Digitaria sanguinalis; conditions: scored after 3 weeks
Text: as §3, with “percent.” for “percent. In the experiments that follow, the herbicidal action of the compounds of the invention and that of the corresponding known racemic compounds closest from WO2012126932 and WO2018202535 were compared under the above-specified conditions by the pre-emergence and post-emergence method. The example numbers given in the tables relate to the compounds disclosed in the respective documents.”

VERPE [25] = assay: Pre-emergence herbicidal action; type: in vivo, Veronica persica; conditions: scored after 3 weeks
Outline: as §5

DIGSA [26] = assay: Post-emergence herbicidal action; type: in vivo, Digitaria sanguinalis; conditions: assessed after about 3 weeks
Experimental: as §4

SMILES | Pre-emergence action against ECHCG (ECHCG [1]; 20 g/ha) [%] | Pre-emergence action against ECHCG (ECHCG [1]; 80 g/ha) [%] | Post-emergence action against AMARE (AMARE [2]; 5 g/ha) [%] | Post-emergence action against AMARE (AMARE [2]; 20 g/ha) [%] | Post-emergence action against VIOTR (VIOTR [4]; 5 g/ha) [%] | Post-emergence action against VIOTR (VIOTR [4]; 20 g/ha) [%] | Post-emergence action against ECHCG (ECHCG [6]; 20 g/ha) [%] | Pre-emergence action against MATIN (MATIN [7]; 20 g/ha) [%] | Pre-emergence action against MATIN (MATIN [7]; 80 g/ha) [%] | Pre-emergence action against AMARE (AMARE [8]; 20 g/ha) [%] | Pre-emergence action against AMARE (AMARE [8]; 80 g/ha) [%] | Pre-emergence action against AVEFA (AVEFA [9]) [%] | Post-emergence action against VERPE (VERPE [13]; 20 g/ha) [%] | Post-emergence action against PHBPU (PHBPU [14]; 20 g/ha) [%] | Pre-emergence action against ALOMY (ALOMY) [%] | Pre-emergence action against SETVI (SETVI [19]; 20 g/ha) [%] | Pre-emergence action against SETVI (SETVI [19]; 80 g/ha) [%] | Pre-emergence action against VIOTR (VIOTR [20]; 20 g/ha) [%] | Pre-emergence action against VIOTR (VIOTR [20]; 80 g/ha) [%] | Post-emergence action against SETVI (SETVI [21]; 5 g/ha) [%] | further results
C[S+]([O-])c1c(C(F)(F)F)ccc(C(=O)Nc2nnco2)c1Cl (stereo in doubt) [Example I-1, 2-chloro-N-(1,3,4-oxadiazol-2-yl)-3-[(S)-methylsulfinyl]-4-(trifluoromethyl)benzamide] | 100 | 100 | 100 | 100 | 100 | 100 | 100 | 100 | 100 | 100 | 100 | 80 | 90 | 100 | 80 | 80 | 100 | 100 | 100 | 80 | Pre-emergence action against ECHCG (ECHCG [1]; 5 g/ha): 90%; Post-emergence action against AMARE (AMARE [2]; 1.25 g/ha): 100%; Damage to TRZAS (TRZAS [3]): 30%; Post-emergence action against VIOTR (VIOTR [4]; 1.25 g/ha): 90%; Damage to ZEAMX (ZEAMX [5]; 320 g a.i./ha): 0%; Post-emergence action against ECHCG (ECHCG [6]; 5 g/ha): 100%; Damage to ZEAMX (ZEAMX [10]): 0%; Pre-emergence action against PHBPU (PHBPU [11]): 100%; Post-emergence action against AVEFA (AVEFA [12]): 80%; Post-emergence action against PHBPU (PHBPU [14]; 5 g/ha): 100%; Damage to ORYZA (ORYZA [15]): 70%; Post-emergence action against MATIN (MATIN [16]; 5 g/ha): 80%; Post-emergence action against MATIN (MATIN [16]; 20 g/ha): 90%; Damage to TRZAS (TRZAS [17]; 80 g a.i./ha): 60%; Pre-emergence action against POLCO (POLCO [18]): 80%; Post-emergence action against SETVI (SETVI [21]; 20 g/ha): 100%; Damage to ORYZA (ORYZA [22]): 80%; Post-emergence action against POLCO (POLCO [23]): 80%
Cc1nnc(NC(=O)c2ccc(C(F)F)c([S+](C)[O-])c2Cl)o1 (stereo in doubt) [Example I-6, 2-chloro-N-(5-methyl-1,3,4-oxadiazol-2-yl)-3-[(S)-methylsulfinyl]-4-(difluoromethyl)benzamide] | 90 | 100 | 90 | 100 | 80 | 100 | 100 | 90 | 90 | 90 | 100 | 100 | 90 | 90 | 100 | 90 | 100 | 100 | 100 | 100 | Damage to BRSNW (BRSNW): 40%; Damage to GLXMA (GLXMA): 40%; Pre-emergence action against DIGSA (DIGSA [24]; 20 g/ha): 100%; Pre-emergence action against DIGSA (DIGSA [24]; 80 g/ha): 100%; Pre-emergence action against VERPE (VERPE [25]; 20 g/ha): 90%; Pre-emergence action against VERPE (VERPE [25]; 80 g/ha): 100%; Herbicidal action against VIOTR (VIOTR [4]; 5 g a.i./ha): 80%; Herbicidal action against VIOTR (VIOTR [4]; 20 g a.i./ha): 100%; Damage to ZEAMX (ZEAMX [5]; 80 g a.i./ha): 20%; Herbicidal action against ECHCG (ECHCG [6]; 20 g a.i./ha, comparative experiment): 100%; Post-emergence action against VERPE (VERPE [13]; 5 g/ha): 90%; Damage to TRZAS (TRZAS [17]; 5 g a.i./ha): 20%; Post-emergence action against DIGSA (DIGSA [26]; 5 g/ha): 90%; Post-emergence action against DIGSA (DIGSA [26]; 20 g/ha): 90%; Herbicidal action against SETVI (SETVI [21]; 5 g a.i./ha, comparative experiment): 100%; Post-emergence action against SETVI (SETVI [21]; 20 g/ha): 100%
